Results from US6204293A, “Inhibitors of protein isoprenyl transferases” (University of Pittsburgh, priority 1998, dated 2001).
Where a name gives a salt, the structure may show the parent alone. Read-outs that look alike come from different tables or passages of the source.

Target: T1, Rat brain protein farnesyltransferase (Rattus norvegicus, UniProt Q02293+Q04631)
T1 construct: Rat brain protein farnesyltransferase activity is measured; from tissue; host or cells: rat brain
Assay: % inhibition of farnesylation, scintillation proximity assay with biotin-K Ras B fragment
Assay type: biochemical
Settings: for inhibition at 0.1 µM: read-out: % inhibition at 1 × 10^-7 M; for inhibition at 1 µM: read-out: % inhibition at 1 × 10^-6 M; for % inhibition at 1 × 10^-5 M: Table 1; for % inhibition at 1 × 10^-8 M: Table 4
In short: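 Rat brain enzyme, purified through three steps, in a scintillation proximity assay kit with biotin-K Ras B fragment substrate at 0.1 mM final. Value is % inhibition of farnesylation.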

T1 sequence (Q02293 whole entry, one chain of several): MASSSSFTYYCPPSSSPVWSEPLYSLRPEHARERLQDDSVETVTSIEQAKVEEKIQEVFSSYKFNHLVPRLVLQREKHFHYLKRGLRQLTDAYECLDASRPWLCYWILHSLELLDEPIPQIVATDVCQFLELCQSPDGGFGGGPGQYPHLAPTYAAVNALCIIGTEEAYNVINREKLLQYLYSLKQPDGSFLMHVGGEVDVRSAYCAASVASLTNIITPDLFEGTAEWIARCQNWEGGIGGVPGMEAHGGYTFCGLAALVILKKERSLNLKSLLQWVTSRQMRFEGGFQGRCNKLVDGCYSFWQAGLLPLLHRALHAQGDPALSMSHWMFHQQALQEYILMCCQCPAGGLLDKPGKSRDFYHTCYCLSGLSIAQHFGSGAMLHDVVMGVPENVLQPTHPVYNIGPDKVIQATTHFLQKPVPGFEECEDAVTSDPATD

In the case of `CSCC[C@H](NC(=O)c1ccc(CSC2=NCCS2)cc1-c1ccccc1C)C(=O)O` [Example 730], the inhibition at 0.1 µM (Table 3, 1 × 10^-7 M) is reported as 96%.

Compound `CSCC[C@H](NC(=O)c1ccc(CSc2nc3ccccc3[nH]2)cc1-c1ccccc1C)C(=O)O` [Example 732] has an inhibition at 0.1 µM (Table 3, 1 × 10^-7 M) of 84%.

Compound `CSCC[C@H](NC(=O)c1ccc(CSc2nc3cc(C)ccc3[nH]2)cc1-c1ccccc1C)C(=O)O` [Example 733] has an inhibition at 0.1 µM (Table 3, 1 × 10^-7 M) of 60%.

Compound `CSCC[C@H](NC(=O)c1ccc(CSc2nnc(N)s2)cc1-c1ccccc1C)C(=O)O` [Example 734] has an inhibition at 0.1 µM (Table 3, 1 × 10^-7 M) of 49%.

In the case of `CSCC[C@H](NC(=O)c1ccc(CSc2nnc[nH]2)cc1-c1ccccc1C)C(=O)O` [Example 735], the inhibition at 0.1 µM (Table 3, 1 × 10^-7 M) is reported as 96%.

Work on `CSCC[C@H](NC(=O)c1ccc(CSc2ccccc2C(C)C)cc1-c1ccccc1C)C(=O)O` [Example 739] yielded an inhibition at 0.1 µM (Table 3, 1 × 10^-7 M) of 83%.

`CSCC[C@H](NC(=O)c1ccc(CSc2ccc(F)cc2)cc1-c1ccccc1C)C(=O)O` [Example 740] showed an inhibition at 0.1 µM (Table 3, 1 × 10^-7 M) of 94%.

`CSCC[C@H](NC(=O)c1ccc(CSc2ccc(C)cc2C)cc1-c1ccccc1C)C(=O)O` [Example 741] was tested, and the inhibition at 0.1 µM (Table 3, 1 × 10^-7 M) was 89%.

With `CSCC[C@H](NC(=O)c1ccc(CSc2nc(C)cc(C)n2)cc1-c1ccccc1C)C(=O)O` [Example 743] the inhibition at 0.1 µM (Table 3, 1 × 10^-7 M) was 51%.

Work on `CSCC[C@H](NC(=O)c1ccc(CSc2nc(O)cc(Cc3ccccc3)n2)cc1-c1ccccc1C)C(=O)O` [Example 744] yielded an inhibition at 1 µM (Table 2, 1 × 10^-6 M) of 84%.

`CSCC[C@H](NC(=O)c1ccc(CSc2nc3ccccc3c(=O)[nH]2)cc1-c1ccccc1C)C(=O)O` [Example 745] showed an inhibition at 0.1 µM (Table 3, 1 × 10^-7 M) of 93%.

`CSCC[C@H](NC(=O)c1ccc(CSc2ncnc3[nH]ncc23)cc1-c1ccccc1C)C(=O)O` [Example 746] showed an inhibition at 0.1 µM (Table 3, 1 × 10^-7 M) of 84%.

For `CSCC[C@H](NC(=O)c1ccc(CSc2ncnc3[nH]cnc23)cc1-c1ccccc1C)C(=O)O` [Example 747], the inhibition at 0.1 µM (Table 3, 1 × 10^-7 M) was 68%.

In the case of `CSCC[C@H](NC(=O)c1ccc(NC(=O)CN)cc1-c1ccccc1)C(=O)O` [Example 748], the “% inhibition at 1 × 10^-7 M” value (Table 3, 1 × 10^-7 M) is reported as 56%.

With `CNCC(=O)Nc1ccc(C(=O)N[C@@H](CCSC)C(=O)O)c(-c2ccccc2)c1` [Example 749] the “% inhibition at 1 × 10^-6 M” value (Table 2, 1 × 10^-6 M) was 84%.

In the case of `CSCC[C@H](NC(=O)c1ccc(NC(=O)CCN)cc1-c1ccccc1)C(=O)O` [Example 750], the “% inhibition at 1 × 10^-5 M” value is reported as 44%.

For `CSCC[C@H](NC(=O)c1ccc(NC(=O)C[C@H]2C[C@@H](C(C)=O)C2(C)C)cc1-c1ccccc1)C(=O)O` [Example 751], the “% inhibition at 1 × 10^-6 M” value (Table 2, 1 × 10^-6 M) was 32%.

In the case of `CSCC[C@H](NC(=O)c1ccc(NC(=O)c2cccc(N(C)C)c2)cc1-c1ccccc1)C(=O)O` [Example 752], the “% inhibition at 1 × 10^-5 M” value is reported as 58%.

`COc1cc(Cl)ccc1C(=O)Nc1ccc(C(=O)N[C@@H](CCSC)C(=O)O)c(-c2ccccc2)c1` [Example 753] was tested, and the “% inhibition at 1 × 10^-5 M” value was 55%.

In the case of `COc1ccc(Br)c(C(=O)Nc2ccc(C(=O)N[C@@H](CCSC)C(=O)O)c(-c3ccccc3)c2)c1` [Example 754], the “% inhibition at 1 × 10^-5 M” value is reported as 40%.

`COc1cc(I)c(C(=O)Nc2ccc(C(=O)N[C@@H](CCSC)C(=O)O)c(-c3ccccc3)c2)cc1OC` [Example 756] was tested, and the “% inhibition at 1 × 10^-5 M” value was 47%.

In the case of `CSCC[C@H](NC(=O)c1ccc(NC(=O)Cc2ccccc2[N+](=O)[O-])cc1-c1ccccc1)C(=O)O` [Example 757], the “% inhibition at 1 × 10^-5 M” value is reported as 58%.

In the case of `CSCC[C@H](NC(=O)c1ccc(CN(CCC2CCCCC2)C(=O)c2ccccc2)cc1-c1ccccc1C)C(=O)O` [Example 762], the “% inhibition at 1 × 10^-8 M” value is reported as 84%.

With `CCSC[C@H](CC1CCCCC1)NCc1ccc(C(=O)N[C@@H](CCSC)C(=O)OCOC(=O)C(C)(C)C)c(-c2ccccc2C)c1` [Example 764] the “% inhibition at 1 × 10^-6 M” value (Table 2, 1 × 10^-6 M) was 88%.

With `CCSC[C@H](CC1CCCCC1)NCc1ccc(C(=O)N(C)[C@@H](CCSC)C(=O)O)c(-c2ccccc2C)c1` [Example 765] the “% inhibition at 1 × 10^-6 M” value (Table 2, 1 × 10^-6 M) was 76%.

For `CSCC[C@H](NC(=O)c1ccc(CN[C@H](CSC2CCCCC2)CC2CCCCC2)cc1-c1ccccc1C)C(=O)O` [Example 766], the “% inhibition at 1 × 10^-8 M” value was 95%.

With `CSCC[C@H](NC(=O)c1ccc(CN[C@H](CSc2ccccc2C)CC2CCCCC2)cc1-c1ccccc1C)C(=O)O` [Example 767] the “% inhibition at 1 × 10^-8 M” value was 97%.

In the case of `CSCC[C@H](NC(=O)c1ccc(S(=O)(=O)N(Cc2ccccc2)c2ccccc2)cc1-c1ccccc1C)C(=O)[O-].[Li+]` [Example 768], the “% inhibition at 1 × 10^-6 M” value (Table 2, 1 × 10^-6 M) is reported as 67%.

In the case of `CSCC[C@H](NC(=O)c1ccc(CN(c2ccccc2)S(=O)(=O)c2ccccc2)cc1-c1ccccc1C)C(=O)O` [Example 769], the “% inhibition at 1 × 10^-7 M” value (Table 3, 1 × 10^-7 M) is reported as 90%.

In the case of `CSCC[C@H](NC(=O)c1ccc(CN(c2ccccc2)S(=O)(=O)c2ccc(C)cc2)cc1-c1ccccc1C)C(=O)O` [Example 770], the “% inhibition at 1 × 10^-7 M” value (Table 3, 1 × 10^-7 M) is reported as 91%.

In the case of `CSCC[C@H](NC(=O)c1ccc(S(=O)(=O)NCCC2CCCCC2)cc1-c1ccccc1C)C(=O)O` [Example 772], the “% inhibition at 1 × 10^-6 M” value (Table 2, 1 × 10^-6 M) is reported as 79%.

With `CSCC[C@H](NC(=O)c1ccc(S(=O)(=O)NC2CCN(Cc3ccccc3)CC2)cc1-c1ccccc1C)C(=O)O` [Example 773] the “% inhibition at 1 × 10^-6 M” value (Table 2, 1 × 10^-6 M) was 41%.

`CSCC[C@H](NC(=O)c1ccc(S(=O)(=O)NCCN2CCCCC2)cc1-c1ccccc1C)C(=O)O` [Example 774] was tested, and the “% inhibition at 1 × 10^-6 M” value (Table 2, 1 × 10^-6 M) was 48%.

For `CSCC[C@H](NC(=O)c1ccc(S(=O)(=O)NCCN2CCOCC2)cc1-c1ccccc1C)C(=O)O` [Example 775], the “% inhibition at 1 × 10^-6 M” value (Table 2, 1 × 10^-6 M) was 32%.

In the case of `COc1ccc(CCNS(=O)(=O)c2ccc(C(=O)N[C@@H](CCSC)C(=O)O)c(-c3ccccc3C)c2)cc1OC` [Example 776], the “% inhibition at 1 × 10^-6 M” value (Table 2, 1 × 10^-6 M) is reported as 36%.

With `CSCC[C@H](NC(=O)c1ccc(S(=O)(=O)NCCCn2ccnc2)cc1-c1ccccc1C)C(=O)O` [Example 777] the “% inhibition at 1 × 10^-6 M” value (Table 2, 1 × 10^-6 M) was 83%.

For `COc1cccc(CN(Cc2ccc(C(=O)N[C@@H](CCSC)C(=O)O)c(-c3ccccc3C)c2)c2ccccc2)c1` [Example 779], the “% inhibition at 1 × 10^-8 M” value was 70%.

For `CSCC[C@H](NC(=O)c1ccc(CN(c2ccccc2)S(=O)(=O)c2ccc(C(F)(F)F)cc2)cc1-c1ccccc1C)C(=O)O` [Example 780], the “% inhibition at 1 × 10^-8 M” value was 71%.

With `CSCC[C@H](NC(=O)c1ccc(CN(Cc2ccc(Cl)cc2)c2ccccc2)cc1-c1ccccc1C)C(=O)O` [Example 781] the “% inhibition at 1 × 10^-7 M” value (Table 3, 1 × 10^-7 M) was 91%.

In the case of `CSCC[C@H](NC(=O)c1ccc(CN(Cc2ccc(C(F)(F)F)cc2)c2ccccc2)cc1-c1ccccc1C)C(=O)O` [Example 782], the “% inhibition at 1 × 10^-6 M” value (Table 2, 1 × 10^-6 M) is reported as 96%.

In the case of `CSCC[C@H](NC(=O)c1ccc(C=Cc2cncs2)cc1-c1ccccc1C)C(=O)[O-].[Li+]` [Example 785], the “% inhibition at 1 × 10^-7 M” value (Table 3, 1 × 10^-7 M) is reported as 96%.

With `CSCC[C@H](NC(=O)c1ccc(-c2ccccc2-c2ccccc2)cc1-c1ccccc1C)C(=O)[O-].[Li+]` [Example 786] the “% inhibition at 1 × 10^-6 M” value (Table 2, 1 × 10^-6 M) was 34%.

With `CSCC[C@H](NC(=O)c1ccc(-c2cccc(-c3ccccc3)c2)cc1-c1ccccc1C)C(=O)[O-].[Li+]` [Example 787] the “% inhibition at 1 × 10^-6 M” value (Table 2, 1 × 10^-6 M) was 70%.

With `CSCC[C@H](NC(=O)c1ccc(-c2ccc(-c3ccccc3)cc2)cc1-c1ccccc1C)C(=O)[O-].[Li+]` [Example 788] the “% inhibition at 1 × 10^-6 M” value (Table 2, 1 × 10^-6 M) was 44%.

`CSCC[C@H](NC(=O)c1ccc(C[C@H]2CC[C@@H](c3ccccc3)CC2)cc1-c1ccccc1C)C(=O)O` [Example 790] was tested, and the “% inhibition at 1 × 10^-6 M” value (Table 2, 1 × 10^-6 M) was 88%.

`CSCC[C@H](NC(=O)c1ccc(/C=C/c2ccccc2)cc1-c1ccccc1C)C(=O)O` [Example 791] was tested, and the “% inhibition at 1 × 10^-6 M” value (Table 2, 1 × 10^-6 M) was 53%.

`CSCC[C@H](NC(=O)c1ccc(CCc2cccc(-c3ccccc3)c2)cc1-c1ccccc1C)C(=O)[O-].[Li+]` [Example 793] was tested, and the “% inhibition at 1 × 10^-6 M” value (Table 2, 1 × 10^-6 M) was 94%.

`CSCC[C@H](NC(=O)c1ccc(COc2ccc(Oc3ccccc3)cc2)cc1-c1ccccc1C)C(=O)O` [Example 795, N-[4-(4-phenoxyphenoxymethyl)-2-(2-methylphenyl)benzoyl]methionine lithium salt] showed an inhibition at 0.1 µM of 87%.

With `CCOC(=O)N1CCC(NCc2ccc(C(=O)N[C@@H](CCSC)C(=O)[O-])c(-c3ccccc3C)c2)CC1.[Li+]` [Example 806] the “% inhibition at 1 × 10^-6 M” value (Table 2, 1 × 10^-6 M) was 72%.

Compound `CSCC[C@H](NC(=O)c1ccc(COC2CCN(Cc3ccccc3)CC2)cc1-c1ccccc1C)C(=O)O` [Example 807, N-[4-(1-benzylpiperidin-4-yloxymethyl)-2-(2-methylphenyl)benzoyl]methioninelithium salt] has an inhibition at 1 µM (Table 2, 1 × 10^-6 M) of 90%.

For `CSCC[C@H](NC(=O)c1ccc(COC2CCN(C(=O)OC(C)(C)C)CC2)cc1-c1ccccc1C)C(=O)O` [Example 808, N-[4-(1-t-butoxycarbonylpiperidin-4-yloxymethyl)-2-(2-methylphenyl)benzoyl]methionine lithium salt], the inhibition at 1 µM was 88%.

Work on `CSCC[C@H](NC(=O)c1ccc(COC2(Cc3ccccc3)CCN(C(=O)OC(C)(C)C)CC2)cc1-c1ccccc1C)C(=O)O` [Example 809, N-[4-(1-t-butoxycarbonyl-4-benzylpiperidin-4-yloxymethyl)-2-(2-methylphenyl)benzoyl]methionine lithium salt] yielded an inhibition at 1 µM of 78%.

`CSCC[C@H](NC(=O)c1ccc(/C=C/c2ccc(Oc3ccccc3)nn2)cc1-c1ccccc1C)C(=O)O` [Example 810] was tested, and the “% inhibition at 1 × 10^-6 M” value (Table 2, 1 × 10^-6 M) was 89%.

In the case of `CSCC[C@H](NC(=O)c1ccc(CCc2ccc(Oc3ccccc3)nn2)cc1-c1ccccc1C)C(=O)O` [Example 811], the “% inhibition at 1 × 10^-7 M” value (Table 3, 1 × 10^-7 M) is reported as 85%.
